Patent US20160287613A1, “SALICYLATES FOR USE IN THE TREATMENT OF CANCER” (priority 2013, published 2016)
Entries after “also recorded” stand apart in the source; their conditions may differ.

Columns and labels:
cancer cells = test: Patient tests with high ASA doses; assay type: in vivo, human; settings: high ASA doses of 90-120 mg/kg bodyweight
Experimental: But in the course of tests it became apparent how to artificially activate the immune system to be conditioned for killing cancer cells in basic environment. The “protection factor” also can be eliminated by the administration of high ASA doses of between 90-120 mg/kg bodyweight of the patient. […] The administered doses that provide this effect are between 90-120 mg/kg bodyweight of the patient of ASA.

[1] = tested on: bladder cancer cell line RT 112; test: Lactate transport (export): enzymatic determination of lactate in supernatants at 340 nm; assay type: cell-based, human; settings: RT 112, 0.2 mM albumin, pH 6.5 to 7.4, FIG. 1a/b
Experimental: The human bladder tumor cell line RT112 or the human chronic myeloid leukemia cell line K562 were purchased from DKFZ Tumorzell- und datenbank (Institut für experimentelle Pathologie, Heidelberg, FRG) or DSM (Deutsche Sammlung von Mikroorganismen und Zellkulturen GmbH, Braunschweig, FRG) supplemented with 2 mM L-glutamine (BIOCHROM, Berlin, FRG), 1% NEAE (BIOCHROM), 10% heat-inactivated fetal calf serum (BIOCHROM), 100 U/ml penicillin and 50 μg/ml Streptomycin (BIOCHROM) at 37 oc and 5% co2. Only mycoplasma-free cell cultures were used; this was frequently tested using a specific detection kit (BOEHRINGER MANNHEIM, Mannheim, FRG). Qualitative, Enzymatic Determination of Lactate in Supernatants of RT112 Cells at 340 nm RT112 cells were harvested, washed twice and re-suspended in culture media to yield a density of 2×10^5/ml. 500 μl/well of the RT112 cell suspension were seeded into 24 well microtiter plates (BD) and incubated over night at 37° C. and 5% C˜. The Supernatant was replaced by 450 pl pH-adjusted culture medium (pH 6.0-7.4) and 50 111 of the solution of preferred substances or 500 111/well pH-adjusted culture medium alone (control). Again, the cells were incubated for 24 hat 37° C. and 5% CO2. The measurement of lactate in the supernatants at 340 nm (PERKIN-ELMER, Lambda 17. UV-VIS Spectrophotometer, Überlingen, FRG) was performed according to the manufacturer's instructions (SIGMA DIAGNOSTICS, Deisenhofen, FRG; Lactate: Quantitative, Enzymatic Determination of Lactate in Whole Blood at 340 nm (Procedure No. 826-UV)).

RT 112 cancer cells = test: Proliferation, [3H]-TdR (3H-thymidine) incorporation assay; assay type: cell-based, human; settings: FIG. 2a
Experimental: The human bladder tumor cell line RT112 or the human chronic myeloid leukemia cell line K562 were purchased from DKFZ Tumorzell- und datenbank (Institut für experimentelle Pathologie, Heidelberg, FRG) or DSM (Deutsche Sammlung von Mikroorganismen und Zellkulturen GmbH, Braunschweig, FRG) supplemented with 2 mM L-glutamine (BIOCHROM, Berlin, FRG), 1% NEAE (BIOCHROM), 10% heat-inactivated fetal calf serum (BIOCHROM), 100 U/ml penicillin and 50 μg/ml Streptomycin (BIOCHROM) at 37 oc and 5% co2. Only mycoplasma-free cell cultures were used; this was frequently tested using a specific detection kit (BOEHRINGER MANNHEIM, Mannheim, FRG). The influence of cytotoxic molecules on the proliferation of RT112 tumor cells was quantified by the measurement of the incorporated tritiated thymidine ([^3H]-TdR) into the cellular DNA of the tumor cells by liquid scintillation counting (LSC). In brief, RT112 cells are harvested, washed twice and re-suspended in culture media (2.5×10^5 /ml). 100 μl/well of the RT112 cell suspension were seeded into 96 well microtiter plates (BECTON DICKINSON) and incubated over night at 37 ° C. and 5% CO2. The supernatant was replaced by 90 μl pH-adjusted culture medium (pH 6.0-7.4) and 10 μl of the solution of preferred substances or 10 μl/well pH-adjusted culture medium alone (control). The cells were incubated for various time periods at 37° C. and 5% CO2. Thereafter, cells were washed twice and re-incubated in fresh pH-adjusted culture medium. And pulsed for 24 h by the addition of 23.125 kBq [^3]-TdR/well (925 kBq/ml, AMERSHAM, Braunschweig, FRG). After freezing and thawing, radioactive DNA of the cultures were transferred to glass fiber filters with an automatic cell harvester (PHARMACIA). The incorporated radioactivity was measured in a liquid scintillation counter (PHARMACIA).

| SMILES | "protection factor" of cancer cells against immune attack (cancer cells) | proliferation of cancer cells (cancer cells) | lactate efflux (export) compared to the Control [1] | proliferation (3H-thymidine incorporation) vs control (RT 112 cancer cells; ASA at 1 mM and 2 mM, pH 6.5-7.4, 0.2 mM albumin) | proliferation (3H-thymidine incorporation) vs control (RT 112 cancer cells; above pH 7.1, 0.2 mM albumin) | proliferation (3H-thymidine incorporation) vs control (RT 112 cancer cells; up to pH 7.1, 0.2 mM albumin) |
| --- | --- | --- | --- | --- | --- | --- |
| CC(=O)Oc1ccccc1C(=O)O [ASA, acetylsalicylic acid] | eliminated | proliferation was stopped | produce stimulation of lactate export all over the pH range; also recorded: accelerate the lactate efflux all over the pH range from pH 6.5 to 7.4 | appreciable enhancement of proliferation | – | – |
| Nc1ccc(C(=O)O)c(O)c1 [PAS, 4-aminosalicylic acid] | – | – | accelerate the lactate efflux all over the pH range from pH 6.5 to 7.4 | – | – | – |
| O=C(O)c1cc(-c2ccc(F)cc2F)ccc1O [Diflunisal, 5-[2,4-difluorophenyl]-salicylic acid] | – | – | produce stimulation of lactate export all over the pH range; also recorded: accelerate the lactate efflux all over the pH range from pH 6.5 to 7.4 | – | produces enhancement | inhibits proliferation slightly |
